Tested on: patients presenting with acute pain from suspected renal colic
Assay: Clinical Study A: analgesic efficacy and safety of cizolirtine citrate versus sodium metamizol, single intravenous dose
Type: in vivo, human
Details: for proportion of patients showing complete pain relief / proportion of patients showing satisfactory pain relief (decrease of pain intensity ≧50%): VAS at t+30 min; for Pain in the VAS at t + 30 min (LSM [SEM]), primary efficacy endpoint: per protocol population, 100 mm VAS, 30 min after start of single iv infusion (350 mg cizolirtine citrate or 2,500 mg sodium metamizol), adjusted means; for number of adverse events: per treatment group (32 randomized each), vomits and one episode of fever, all mild or moderate, none serious
Procedure: Objectives: to compare the analgesic efficacy and safety of cizolirtine citrate, an inhibitor of the release of the substance P, versus sodium metamizol to treat acute pain. Method: sixty four patients presenting with acute pain from suspected renal colic were randomized to a single intravenous dose of either 350 mg of cizolirtine citrate or 2,500 mg of sodium metamizol. Pain was assessed throughout 6 hours by means of visual analogical (VAS) and categorical scales. Results: renal colic was confirmed in all patients randomized. After 30 minutes, pain adjusted mean scores (100 mm VAS) were (LSM±SEM) 39.203±4.4 mm and 30.155±4.2 mm. In the cizolirtine and metamizol groups, respectively (p=0.1203). […] However, efficacy was lower than that of the comparator, an established treatment.
Study population: Subjects of either sex aged between 18 and 65 years old suffering moderate to severe pain due to a suspected renal colic starting within previous 24 hour and having a urine dipstick test positive for haematuria. Since this was an exploratory pilot phase II study, a formal sample size calculation was not performed. Moreover, no previous information regarding a comparison between the effects of sodium metamizol and placebo as analgesics for the management of renal colic could be found. Therefore, a minimum effect size to establish a non-inferiority margin was not be established. Nevertheless, to detect a difference of at least 25 mm in pain intensity measured with the VAS assuming a common standard deviation of 36.1 by means of a one-sided t test, 26 patients per group were necessary. Considering a dropout rate of 20%, 64 patients were recruited in the study
Study treatments: Either one single 350 mg dose of cizolirtine citrate or one single 2,500 mg dose of sodium metamizol by slow intravenous infusion in 15 minutes in a double-blind and randomized fashion and in a 1:1 proportion. Rescue doses of butorphanol were given as needed but were not allowed during the first 30 minutes.
Measurements: Patients ranked their pain intensity on both a visual analogical scale (VAS) and a verbal categorical scale at baseline and 15, 30 and 45 minutes and 1, 2, 3, 4, […] after receiving the study drug. Vital signs were determined also at 15, 30 and 45 minutes and at 1 and 6 hours. Active questioning for adverse events since receiving study medication was done after 2 hours. Confirmatory diagnosis of an ureteral stone had to be established before the end of the study.
Primary endpoint: mean pain intensity as determined by the VAS 30 minutes after the start of study drug administration (t+30 min).
Statistics: Demographic and baseline continuous variables values were compared between treatment groups by means of a t test. Primary efficacy analyses were performed in the per protocol population. An analysis of covariance model with the factors treatment, centre and the treatment by centre interaction and considering the baseline value as a covariate was used or the comparison between the groups. In addition, the bilateral 95% confidence interval was calculated for the difference between treatments.
The proportions of patients with complete and satisfactory pain relief between treatments at t+30 min were compared between treatment groups by means of a chi-square test and also the bilateral 95% confidence intervals for the differences were calculated. The time-treatment variables were evaluated by means of the Kaplan-Meier method and the log-rank test was used to compare the treatment groups, pain intensity differences as determined by means of the visual analogical scale (APID), pain intensity differences as determined by means of the categorical scale (CPID) and relief of pain as determined by means of the categorical scale on pain relief (PAR) from baseline to t+30 min were compared between treatment groups by means of a repeated measures analysis of variance. […]

[1] = 30 min after start of single iv dose, versus baseline

SMILES | mean decrease in pain intensity (VAS) at t+30 min [1] [%] | proportion of patients showing complete pain relief [%] | proportion of patients showing satisfactory pain relief (decrease of pain intensity ≧50%) [%] | onset of analgesia relative to comparator (time-curves APID, CPID, PAR) (difference disappears after 2 hours) | Pain in the VAS at t + 30 min (LSM [SEM]), primary efficacy endpoint [mm] | number of adverse events | mean reductions in pain intensity determined by the VAS at t+30 min [1] [mm] | Pain in the VAS at t + 30 min (LSM [SEM]), primary efficacy endpoint (listed as metamizol) [mm]
CN(C)CCO[C@H](c1ccccc1)c1ccnn1C.O=C(O)CC(O)(CC(=O)O)C(=O)O (racemic) [Cizolirtine, (±)-5-{α-[2-(dimethylamino)ethoxy]benzyl}-1-methyl-1H-pirazole citrate] | 57.2 | 48.4 | 64.5 | deferred with respect to that provided by metamizol | 39.203±4.4 | 3 |  | 
Cc1c(N(C)CS(=O)(=O)[O-])c(=O)n(-c2ccccc2)n1C.[Na+] [Metamizol, sodium metamizol] | 69.1 | 56.3 | 75.0 |  | 30.155 | 3 | 57.1 | 30.155±4.2

Source: patent US20060040924A1, “Derivatives of aryl (or heteroaryl) azolylcarbinols for the treatment of renal colic” (Laboratorios Dr. Esteve S.A., priority 2004, published 2006)
